This is an account of results in patent publication US8952025B2, “Multifunctional radical quenchers and their uses” (Arizona Board of Regents, A Body Corporate of the State of …, priority 2010, dated 2015).

Molecules are shown by their SMILES.

One experiment concerns cultured FRDA cells. Kind of experiment: Cytoprotection of cultured FRDA cells depleted of glutathione. In kind it is cell-based. The settings on record: pretreated then depleted of glutathione, read-out: Viable Cells (%). The text has this: The cells were pretreated with the compounds and then depleted of glutathione. The cell viability is expressed as percentage of total number of cells.

Experiment [1] relates to NADH oxidase, bovine heart mitochondrial complex (I, III, IV). Briefly: NADH oxidase inhibition assay, submitochondrial particles. The experiment is classed as biochemical. The settings on record: for NADH oxidase activity (%): percentage of control; for IC50: beef heart SMP. How it is done:
Beef heart mitochondria were obtained by a large-scale procedure. Inverted submitochondrial particles (SMP) were prepared by the method of Matsuno-Yagi and Hatefi (J. Biol. Chem. 260 (1985), p. 14424), and stored in a buffer containing 0.25 M sucrose and 10 mM Tris-HCl (pH 7.4) at −80° C. Inhibitory effects of compounds on bovine heart mitochondrial complex (I, III, IV) were evaluated. Maximal dimethyl sulfoxide concentration never exceeded 2% and had no influence on the control enzymatic activity. Beef heart SMP were diluted to 0.5 mg/mL. The enzymatic activities were assayed at 30° C. and monitored spectrophotometrically with a Beckman Coulter DU-530 (340 nm, c=6.22 mM^−1 cm^−1). NADH oxidase activity was determined in a reaction medium (2.5 mL) containing 50 mM Hepes, pH 7.5, containing 5 mM MgCl2. The final mitochondrial protein concentration was 30 μg. After the pre-equilibration of SMP with inhibitor for 5 min, the initial rates were calculated from the linear portion of the traces.
The activity is expressed as percentage of control.

Experiment [2] relates to CoQ10 deficient lymphocyte cell line. Briefly: Total intracellular ATP concentration assay (luciferin-luciferase). In kind it is cell-based, human. As to conditions: 48 h, glucose free media with galactose. From the text: The reductions of mitochondrial respiratory chain activity in CoQ10 deficient patients have been reported (Quinzii G M, Lopez L C, Von-Moltke J, Naini A, Krishna S, Schuelke M, Salviati L, Navas P, DiMauro S, and Hirano, M. Respiratory chain dysfunction and oxidative stress correlate with severity of primary CoQ10 deficiency. FASEB J. 2008; 22:1874-1885). The use of CoQ10 analogues to normalize and restore the respiratory chain activities could provide valuable therapeutic approach. We have evaluated the efficiency of oxidative phosphorylation in CoQ10 deficient lymphocyte (GM17932) in presence of tested CoQ10 analogues by measuring total cellular ATP content using (ViaLight® Plus ATP monitoring reagent kit, Lonza).
CoQ10 deficient lymphocyte and normal lymphocyte cell lines were obtained from Coriell Cell Repositories (Camden, N.J.; catalog number GM-17932, GM-158151, respectively). CoQ10 deficient lymphocytes were cultured under glucose-free media supplemented with galactose for two weeks to force energy production predominantly through oxidative phosphorylation rather than glycolysis (Quinzii et al.; Robinson B H, Petrova-Benedict R, Buncic J R, Wallace D C. Nonviability of cells with oxidative defects in galactose medium: A screening test for affected patient fibroblast. Biochem. Med. Metab. Biol. 1992; 48:122-126). Lymphocytes were cultured in RPMI 1640 medium glucose-free (Gibco, Grand Island, N.Y.) supplemented with 25 mM galactose, 2 mM glutamine and 1% penicillin-streptomycin (Cellgro), and 10%, dialyzed fetal bovine serum FBS 0.5 μg/mL) (GEMINI, Bio-Product), Briefly, lymphocytes (2×10^5 cell/mL), were plated (1 mL in 12-well plates) and treated with the test compounds at final concentrations of 5, 10 μM, and 25 μM and incubated at 37° C. for 48 h in a humidified atmosphere containing 5% CO2 in air. The test compounds were prepared by first making 20 mM stock solutions in DMSO. Cells were transferred (100 μL) to 96-well microtiter black-walled cell culture plates (Costar, Corning, N.Y.). The total intracellular ATP level was measured in a luminator (Clarity™ luminescence microplate reader) with the ATP Bioluminescence Assay Kit (ViaLight® Plus ATP monitoring reagent kit, Lonza) following the manufacturer's instructions. The standard curve of ATP was obtained by serial dilution of 1 mM ATP solution. After calibration against the ATP standard, the ATP content of the cell extract was determined and normalized for protein content in the cell.
To enforce the respiratory chain-dependent ATP synthesis, cells were grown for 48 hours in glucose free media supplemented with 25 mM galactose and 10% dialyzed fetal bovine serum (glucose concentration less than 0.5 μg/mL). FIG. 20 illustrates total intracellular ATP levels in CoQ10 deficient and normal lymphocytes measured using the luciferin-luciferase reaction. The levels of ATP shown in Table 1 are relative to the 100% value obtained for the CoQ10 deficient cells in FIG. 20.

As for `COc1cc(N(C)C)nc(CCCCCCCCCCO)c1O`, in the experiment on cultured FRDA cells, the viability at 0.1 µM came out at 33 ± 4.2%, the viability at 0.5 µM worked out at 28.3 ± 2.1% and the viability at 2.5 µM came to 29.5 ± 2.1%.

`CCCCCCCCCCc1nc(N2C(C)CCC2C)nc(C)c1O` (centres unmarked): the “NADH oxidase activity (%)” value in experiment [1] (1 μM) was found to be 40%. Moreover, in experiment [1], the IC50 (in general, the point on the concentration scale where inhibition reaches its midpoint) was found to be 10700 nM.

In the case of `Cc1nc(N(C)C)nc(CCCCCCCCCCO)c1O` [drawing 116], the “Total ATP concentration (% of control)” value in experiment [2] (5 μM) was 102.4 ± 1.2 % of control; in experiment [2] (10 μM), 87.9 ± 4.3 % of control; in experiment [2] (25 μM) it was 46.1 ± 1.2 % of control.

Consider `COc1nc(N(C)C)nc(CCCCCCCCCCO)c1O` [drawing 117], for which the figures for the “Total ATP concentration (% of control)” value in experiment [2] (5 μM), in experiment [2] (10 μM) and in experiment [2] (25 μM) were 101.6 ± 1.4 % of control, 96.8 ± 4.0 % of control and 48.7 ± 0.8 % of control, respectively.

For the compound `CCCCCc1nc(N(C)C)nc(C)c1O` [drawing 118], the “Total ATP concentration (% of control)” value in experiment [2] (5 μM) is 109.3 ± 2.3 % of control; in experiment [2] (10 μM), 111.1 ± 1.5 % of control; in experiment [2] (25 μM) it was 105.6 ± 2.4 % of control.

Take `CCCCCCCCCCc1nc(N(C)C)nc(C)c1O` [drawing 119]: the “Total ATP concentration (% of control)” value in experiment [2] (5 μM) was 106.6 ± 2.7 % of control; in experiment [2] (10 μM), 98.7 ± 1.1 % of control; in experiment [2] (25 μM), 75.3 ± 1.8 % of control.

For the compound `CCCCCCCCCCCCCCCCc1nc(N(C)C)nc(C)c1O` [drawing 120], the “Total ATP concentration (% of control)” value in experiment [2] (5 μM) is 111.5 ± 1.8 % of control; in experiment [2] (10 μM), 106.9 ± 2.7 % of control; in experiment [2] (25 μM), 101.6 ± 3.1 % of control.

With `CCCCCCCCCCc1nc(N(C)C)nc(OC)c1O` [drawing 121], the entries for the “Total ATP concentration (% of control)” value in experiment [2] (5 μM), in experiment [2] (10 μM) and in experiment [2] (25 μM) were 109.4 ± 5.0 % of control, 110.5 ± 6.5 % of control and 68.3 ± 2.7 % of control, respectively.

With `CCCCCCCCCCCCCCCCc1nc(N(C)C)nc(OC)c1O` [drawing 122], the “Total ATP concentration (% of control)” value in experiment [2] (5 μM) is reported as 122.3 ± 1.9 % of control; in experiment [2] (10 μM) it was 116.4 ± 0.5 % of control; in experiment [2] (25 μM), 113.0 ± 1.6 % of control.

`Cc1nc(N(C)C)nc(CCCCCCCCCCO)c1O` [drawing 123]: in the experiment with cultured FRDA cells, the viability at 0.1 µM came to 63.6 ± 8.4%, the viability at 0.5 µM was 83.5 ± 0.7% and the viability at 2.5 µM amounted to 82.7 ± 8.1%.

On to `Cc1cc(N(C)C)nc(CCCCCCCCCCO)c1O` [drawing 124], for which, in the experiment on cultured FRDA cells, the viability at 0.1 µM was determined as 54 ± 5.2%, the viability at 0.5 µM was determined as 76.5 ± 2.1% and the viability at 2.5 µM came to 81.7 ± 5%.

With `COc1nc(N(C)C)nc(CCCCCCCCCCO)c1O` [drawing 125], in the experiment on cultured FRDA cells, the viability at 0.1 µM was 55.6 ± 5.7%, the viability at 0.5 µM amounted to 80 ± 4% and the viability at 2.5 µM was 78.3 ± 7.5%.

Regarding `CCCCCc1nc(N(C)C)nc(C)c1O` [drawing 127], in the experiment on cultured FRDA cells, the viability at 0.1 µM worked out at 46 ± 3.5%, the viability at 0.5 µM was found to be 78.7 ± 4% and the viability at 2.5 µM was 81.3 ± 5.1%.

With `CCCCCCCCCCc1nc(N(C)C)nc(C)c1O` [drawing 128], in the experiment on cultured FRDA cells, the viability at 0.1 µM came to 54.5 ± 3.3%, the viability at 0.5 µM is 84 ± 3.6% and the viability at 2.5 µM came out at 76.3 ± 5%.

`CCCCCCCCCCCCCCCCc1nc(N(C)C)nc(C)c1O` [drawing 129]: in the experiment on cultured FRDA cells, the viability at 0.1 µM is 61.3 ± 2.9%, the viability at 0.5 µM was determined as 84.4 ± 3.4% and the viability at 2.5 µM was 88 ± 1%.

As to `CCCCCCCCCCc1nc(N(C)C)nc(OC)c1O` [drawing 130], in the experiment on cultured FRDA cells, the viability at 0.1 µM was 40.3 ± 1.5%, the viability at 0.5 µM was 83.7 ± 1.5% and the viability at 2.5 µM was 82.7 ± 2.5%.

On to `CCCCCCCCCCCCCCCCc1nc(N(C)C)nc(OC)c1O` [drawing 131], for which, in the experiment on cultured FRDA cells, the viability at 0.1 µM amounted to 43.7 ± 3.1%, the viability at 0.5 µM amounted to 66.3 ± 1.5% and the viability at 2.5 µM was 80.5 ± 5%.

With `CCCCCc1nc(N(C)C)nc(C)c1O` [drawing 132], in experiment [1] (1 μM), the “NADH oxidase activity (%)” value stood at 85%.

Consider `CCCCCCCCCCc1nc(N(C)C)nc(C)c1O` [drawing 133], for which, in experiment [1] (1 μM), the “NADH oxidase activity (%)” value amounted to 40%. Further, the IC50 in experiment [1] was found to be 829 nM.

For `Cc1nc(N(C)C)nc(CCCCCCCCCCO)c1O` [drawing 134], the “NADH oxidase activity (%)” value in experiment [1] (1 μM) amounted to 50%; in experiment [1] (2.5 μM), 42%; in experiment [1] (5 μM), 22%; in experiment [1] (10 μM), 15%. Also, inhibition in experiment [1] was half-maximal at 2230 nM (IC50).

As to `Cc1nc2c(c(CC[C@](C)(O)CCC[C@H](C)CCC[C@H](C)CCCC(C)C)c1O)CCN2C` [drawing 136], the “NADH oxidase activity (%)” value in experiment [1] (1 μM) is given as 50%; in experiment [1] (2.5 μM), 50%; in experiment [1] (10 μM) it was 15%.

As for `Cc1cc(N(C)C)nc(CCCCCCCCCCO)c1O` [drawing 137], the “NADH oxidase activity (%)” value in experiment [1] (1 μM) stood at 90%; in experiment [1] (2.5 μM), 58%; in experiment [1] (5 μM), 38%; in experiment [1] (10 μM), 20%.

Regarding `COc1nc(N(C)C)nc(CCCCCCCCCCO)c1O` [drawing 138], the “NADH oxidase activity (%)” value is recorded as 62.5% in experiment [1] (1 μM), 40% in experiment [1] (2.5 μM), 50% in experiment [1] (5 μM) and 25% in experiment [1] (10 μM).

In the case of `CCCCCCCCCCCCCCCCc1nc(N(C)C)nc(C)c1O` [drawing 139], the “NADH oxidase activity (%)” value in experiment [1] (1 μM), in experiment [1] (2.5 μM), in experiment [1] (5 μM) and in experiment [1] (10 μM) was 62% throughout.

For the compound `CCCCCCCCCCCCCCCCc1nc(N(C)C)nc(OC)c1O` [drawing 140], the “NADH oxidase activity (%)” value in experiment [1] (1 μM) is 90%; in experiment [1] (2.5 μM), 70%; in experiment [1] (5 μM) it was 70%; in experiment [1] (10 μM) it was 70%.

In the case of `CCCCCCCCCCc1nc(N(C)C)nc(OC)c1O` [drawing 141], the “NADH oxidase activity (%)” value in experiment [1] (1 μM) worked out at 38%; in experiment [1] (5 μM), 38%; in experiment [1] (10 μM), 10%.
